According to patent US9169291B2, “Covalent conjugates between endoperoxides and transferrin and lactoferrin receptor-binding agents” (University of Washington, priority 2006, dated 2015):
Where two headings read alike, the source gives them in different places.

Key:
[1] = test system: DAOY human Medulloblastoma cells; conditions: for relative effectiveness on medulloblastoma cells (DAOY cells): two versus one artemisinin moiety
Experimental: DAOY human Medulloblastoma cells (10,000 cells/200 μL) were seeded on a 96 well plate and incubated for 24 h at 37° C. Cell culture medium was removed after 24 h and 150 μL of medium with different combinations of drug treatment was added. Human holotransferrin (20 μM) was added to half of the samples. Treatment medium was removed after 48 h, and 100 μL of cell medium was added, and the following protocol was used to determine cell viability: (1) 10 μL of 12 mM MTT reagent was added to each well; (2) the cultures were incubated at 37° C. for 4 h; (3) 100 μL of isopropanol was added to each well to lyse the cells and then incubated at 4° C. for 30 min; (4) after incubation each well was plunged (3×200 μL) to ensure the cells were lysed; (5) the samples were then centrifuged at 13,000 rpm in a microcentrifuge for 3 min at room temperature; and (6) 100 μL of the supernatant was read in a plate reader at λ=570 nm.

[2] = test system: human Molt-4 lymphobastoid leukemia cells; experiment: cells; conditions: for IC50: read-out: IC50 on Molt-4 cells
Experimental: (§1) The artemisinin-tagged peptide HAIYPRH was tested on human Molt-4 lymphobastoid leukemia cells and compared with normal human lymphocytes, as follows. […] Cell viability was determined before an experiment by using trypan blue dye exclusion. After an initial counting of cells, human holotransferrin (Sigma Chemicals, St. Louis, Mo.) was added to samples of the cells. […] An equal volume of medium was added to control samples. […] At 24, 48 and 72 hrs after the addition of the tagged peptide, cell concentrations in appropriate flasks were counted using a counting hemocytometer chamber and microscope. In a similar set up, the same procedures were carried out on normal human lymphocytes.

normal human lymphocytes = experiment: Toxicity of artemisinin-tagged peptide in normal lymphocytes (cell counting)
Experimental: as §1

human leukemia cells = conditions: cited from earlier work
[3] = cited from earlier work

CC[C@H](C)[C@H](NC(=O)[C@H](C)NC(=O)[C@H](Cc1c[nH]cn1)NC(=O)[C@H](CCCCNC(=O)c1ccc(/C=N/NC(=O)c2ccc(COC3OC4O[C@@]5(C)CCC6[C@H](C)CCC([C@H]3C)[C@@]46OO5)cc2)cc1)NC(=O)c1ccc(/C=N/NC(=O)c2ccc(COC3OC4O[C@@]5(C)CCC6[C@H](C)CCC([C@H]3C)[C@@]46OO5)cc2)cc1)C(=O)N[C@@H](Cc1ccc(O)cc1)C(=O)N1CCC[C@H]1C(=O)N[C@@H](CCCNC(=N)N)C(=O)N[C@@H](Cc1c[nH]cn1)C(N)=O (stereo partly shown) [ART2-peptide]
effect on medulloblastoma cells (DAOY cells) ([1]; 48 h treatment, MTT): effective
relative effectiveness on medulloblastoma cells (DAOY cells) [1]: more effective than ART-peptide
relative effectiveness on medulloblastoma cells (DAOY cells) ([1]; listed as peptide containing two artemisinin moieties): more potent than peptide containing one moiety
change in activity after storage in DMSO ([2]; kept in DMSO at room temperature for one month): essentially no change in activity
IC50 ([2]; at 72 hrs, holotransferrin 12 μM): 0.86 ± 0.1 µM

CC[C@H](C)[C@H](NC(=O)[C@H](C)NC(=O)[C@H](Cc1c[nH]cn1)NC(=O)c1ccc(/C=N/NC(=O)c2ccc(COC3OC4O[C@@]5(C)CCC6[C@H](C)CCC([C@H]3C)[C@@]46OO5)cc2)cc1)C(=O)N[C@@H](Cc1ccc(O)cc1)C(=O)N1CCC[C@H]1C(=O)N[C@@H](CCCNC(=N)N)C(=O)N[C@@H](Cc1c[nH]cn1)C(N)=O (stereo partly shown) [ART-peptide]
effect on normal lymphocytes (cell viability) (normal human lymphocytes; 3.1, 6.2, 12.4 μM, 24, 48 and 72 hours): without affecting normal lymphocytes

C[C@@H]1CC[C@H]2[C@@H](C)C(=O)O[C@@H]3O[C@@]4(C)CC[C@@H]1[C@]32OO4 [Artemisinin]
therapeutic index (toxicity towards cancer cells versus normal cells) (human leukemia cells): approximately 100

C[C@H]1[C@@H](O)O[C@@H]2O[C@@]3(C)CC[C@H]4[C@H](C)CC[C@@H]1[C@@]24OO3 [DHA, dihydroartemisinin]
IC50 ([2]; Homo sapiens, MOLT-4, 72 h): 5.3 ± 0.26 µM
LD50 (μM) (fresh sample) ([2]; fresh sample, after 72 hr): 5.3 ± 0.26 µM
LD50 (μM) (after stored in DMSO at room temperature for 30 days) ([2]; stored in DMSO at room temperature for 30 days, after 72 hr): 5.01 ± 0.35 µM
IC50 (normal human lymphocytes; Homo sapiens, Lymphocyte, read-out: IC50 for normal leukocytes): 43 ± 22 µM

CO[C@H]1O[C@@H]2O[C@@]3(C)CC[C@H]4[C@H](C)CC[C@@H]([C@H]1C)[C@@]24OO3 [artemether]
adverse side effects ([3]; patient with pituitary macroadenoma, oral, 12 months): without any observed adverse side effects

C[C@H]1[C@H](OC(=O)CCC(=O)O)O[C@@H]2O[C@@]3(C)CC[C@H]4[C@H](C)CC[C@@H]1[C@@]24OO3 [artesunate]
adverse side effects ([3]; cancer patient, 9 months (i.m. 60 mg/day 15 days; oral 50 mg per day 8.5 months)): No apparent adverse side effects
